Measurements taken from the supplement of paper PMC10307832.

Tests used:
Experiment in all cases: relative viability (nuclei count vs DMSO), 5 days (fraction); higher = more cells survive
Metformin + Luminespib = compound: CN(C)C(=N)NC(=N)N [Metformin] + CCNC(=O)c1noc(-c2cc(C(C)C)c(O)cc2O)c1-c1ccc(CN2CCOCC2)cc1 [Luminespib] (partner 0.01 µM)
Method in brief: (§1)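 A single step with final 0.05% Triton X-100, 1% formaldehyde and 1 ug/ml Hoechst fixed the cells and stained nuclei 5 days after treatment. Lung cancer cell lines in 1536-well plates had been treated by pin tool the day after seeding with one drug alone or a fixed anchor-drug dose plus five library-drug doses (not always all listed) in √10 steps, and nuclei were counted on 4× images. Relative viability is the ratio of nuclei in treated wells to nuclei in vehicle wells, taken as the median of duplicate plates.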

Apatinib + OSI-027 = compound: N#CC1(c2ccc(NC(=O)c3cccnc3NCc3ccncc3)cc2)CCCC1 [Apatinib] + COc1cccc2cc(-c3nc([C@H]4CC[C@H](C(=O)O)CC4)n4ncnc(N)c34)[nH]c12 [OSI-027] (partner 0.5 µM)
Method in brief: as §1

Metformin + Pictilisib = compound: CN(C)C(=N)NC(=N)N [Metformin] + CS(=O)(=O)N1CCN(Cc2cc3nc(-c4cccc5[nH]ncc45)nc(N4CCOCC4)c3s2)CC1 [Pictilisib] (partner 1 µM)
Method in brief: as §1

Apatinib + AZD7762 = compound: N#CC1(c2ccc(NC(=O)c3cccnc3NCc3ccncc3)cc2)CCCC1 [Apatinib] + NC(=O)Nc1cc(-c2cccc(F)c2)sc1C(=O)N[C@H]1CCCNC1 [AZD7762] (partner 0.2 µM)
Method in brief: as §1

Cell Line | relative viability (Metformin + Luminespib; first compound 10 µM) | relative viability (Metformin + Luminespib; first compound 31.62 µM) | relative viability (Metformin + Luminespib; first compound 100 µM) | relative viability (Metformin + Luminespib; first compound 316.23 µM) | relative viability (Metformin + Luminespib; first compound 1000 µM) | relative viability (Apatinib + OSI-027; first compound 0.08 µM) | relative viability (Apatinib + OSI-027; first compound 0.253 µM) | relative viability (Apatinib + OSI-027; first compound 0.8 µM) | relative viability (Apatinib + OSI-027; first compound 2.53 µM) | relative viability (Apatinib + OSI-027; first compound 8 µM) | relative viability (Metformin + Pictilisib; first compound 10 µM) | relative viability (Metformin + Pictilisib; first compound 31.62 µM) | relative viability (Metformin + Pictilisib; first compound 100 µM) | relative viability (Metformin + Pictilisib; first compound 316.23 µM) | relative viability (Metformin + Pictilisib; first compound 1000 µM) | relative viability (Apatinib + AZD7762; first compound 0.08 µM) | relative viability (Apatinib + AZD7762; first compound 0.253 µM) | relative viability (Apatinib + AZD7762; first compound 0.8 µM) | relative viability (Apatinib + AZD7762; first compound 2.53 µM) | relative viability (Apatinib + AZD7762; first compound 8 µM)
EMC-BAC-2 | 1.23 | 1.24 | 1.21 | 1.19 | 1.33 | 0.413 | 0.389 | 0.357 | 0.338 | 0.291 | 0.475 | 0.536 | 0.528 | 0.523 | 0.523 | 1.1 | 1.07 | 1.06 | 0.91 | 0.998
NCI-H1395 | 0.706 | 0.697 | 0.826 | 0.834 | 0.773 | 0.614 | 0.701 | 0.662 | 0.693 | 0.639 | 0.64 | 0.728 | 0.653 | 0.81 | 0.593 | 0.438 | 0.425 | 0.407 | 0.361 | 0.373
NCI-H1355 | 0.752 | 0.704 | 0.768 | 0.701 | 0.752 | 0.391 | 0.396 | 0.394 | 0.374 | 0.364 | 0.503 | 0.439 | 0.438 | 0.435 | 0.504 | 0.699 | 0.812 | 0.593 | 0.447 | 0.457
RERF-LC-KJ | 1.11 | 1.15 | 0.979 | 0.808 | 0.864 | 0.554 | 0.592 | 0.533 | 0.51 | 0.497 | 0.57 | 0.55 | 0.53 | 0.402 | 0.614 | 0.844 | 1.02 | 1.04 | 0.779 | 0.759
HARA |  | 0.897 | 0.895 | 0.775 | 0.776 | 0.782 | 0.359 | 0.482 | 0.448 | 0.303 | 0.504 | 0.468 | 0.497 | 0.496 | 0.46 | 0.344 | 0.38 | 0.184 |  | 0.128
NCI-H1792 | 0.599 | 0.57 | 0.789 | 0.418 | 0.485 | 0.778 | 0.659 | 0.693 | 0.475 | 0.439 |  | 0.398 | 0.393 | 0.47 | 0.428 | 0.881 | 0.68 | 0.528 | 0.508 | 0.211
HCC-827 |  | 0.843 | 0.843 | 0.524 | 0.736 | 0.856 | 0.742 | 0.575 | 0.719 | 0.642 |  | 0.914 | 1.13 | 0.996 | 1.15 | 0.166 | 0.213 | 0.165 | 0.141 | 0.158
NCI-H2126 | 0.647 | 0.956 | 0.803 | 0.571 | 0.496 | 0.816 | 0.641 | 0.666 | 0.585 | 0.664 | 0.519 | 0.474 | 0.514 | 0.472 | 0.485 | 1.02 | 0.924 | 0.9 | 0.973 | 0.933
